Values of other authors, collected in patent US20040234544A1, “Formulation containing (lyso-)phosphatidylserine for the prevention and treatment of stress states in warm blooded animals” (priority 2001, published 2004).
Where two headings read alike, the source gives them in different places.

How the values were obtained:
young adults = conditions: 300 mg PS per day
trained runners = conditions: 300 or 600 mg PS per day over 15 days
persons under 40 years = persons under 40 years and persons whose brain function was average for their age

phosphatidylserine
mood (young adults): positive effect | pulse rate (young adults): positive effect | subjective stress sensitivity (young adults): positive effect | effect against muscle damage (trained runners): protective effect against muscle damage | effect in stress-induced behaviour (body temperature) (rats; old rats): normalization of body temperature | effect in lesions of the stomach wall (rats; older rats): positive effect | effect in lesions of the stomach wall (rats; young rats): this effect was not observed | improvements under PS supplementation (persons under 40 years): no improvements were observed
